US20170056380A1, “Systems, Methods, Techniques, and Compounds in Research and Treatment of Portal Hypertension and other Conditions” (priority 2014, published 2017)

Target: T1, eNOS (Rattus norvegicus, UniProt Q62600)
T1 construct: endogenous in cells; host or cells: primary liver sinusoidal endothelial cells from male Sprague-Dawley rats (normal or bile-duct-ligated)
T1 sequence (Q62600 1-1202): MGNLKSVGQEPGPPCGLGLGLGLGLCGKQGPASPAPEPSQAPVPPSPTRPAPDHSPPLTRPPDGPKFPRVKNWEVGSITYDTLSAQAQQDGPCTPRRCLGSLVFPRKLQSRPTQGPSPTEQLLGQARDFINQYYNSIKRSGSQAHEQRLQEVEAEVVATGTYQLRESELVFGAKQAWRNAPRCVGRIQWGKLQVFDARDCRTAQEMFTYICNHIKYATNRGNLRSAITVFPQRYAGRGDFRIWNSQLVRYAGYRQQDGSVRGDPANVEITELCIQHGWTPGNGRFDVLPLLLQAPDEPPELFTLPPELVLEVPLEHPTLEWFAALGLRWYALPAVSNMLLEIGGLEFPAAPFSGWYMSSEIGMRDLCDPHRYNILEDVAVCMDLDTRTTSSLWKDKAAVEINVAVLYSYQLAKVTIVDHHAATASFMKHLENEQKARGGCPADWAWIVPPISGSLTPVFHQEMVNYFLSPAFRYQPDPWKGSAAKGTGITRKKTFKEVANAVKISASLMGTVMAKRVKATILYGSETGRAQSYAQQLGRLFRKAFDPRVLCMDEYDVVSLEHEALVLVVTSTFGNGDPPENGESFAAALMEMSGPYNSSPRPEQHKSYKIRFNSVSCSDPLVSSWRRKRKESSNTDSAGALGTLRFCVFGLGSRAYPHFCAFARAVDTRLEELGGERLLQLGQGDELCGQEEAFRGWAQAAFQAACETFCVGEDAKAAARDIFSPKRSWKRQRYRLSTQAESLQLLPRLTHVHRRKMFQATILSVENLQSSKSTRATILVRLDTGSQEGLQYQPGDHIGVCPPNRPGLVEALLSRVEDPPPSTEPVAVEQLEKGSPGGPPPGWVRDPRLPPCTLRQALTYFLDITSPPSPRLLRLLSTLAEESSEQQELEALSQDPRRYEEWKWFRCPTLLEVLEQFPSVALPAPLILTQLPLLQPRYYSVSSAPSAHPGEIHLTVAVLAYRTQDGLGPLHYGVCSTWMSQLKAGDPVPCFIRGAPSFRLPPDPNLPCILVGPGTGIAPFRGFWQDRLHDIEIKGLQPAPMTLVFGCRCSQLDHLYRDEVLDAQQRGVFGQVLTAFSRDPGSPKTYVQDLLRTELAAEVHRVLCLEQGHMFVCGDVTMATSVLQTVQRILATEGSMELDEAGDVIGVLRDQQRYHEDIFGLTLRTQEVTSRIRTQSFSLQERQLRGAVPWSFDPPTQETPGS
Assay: NOS activity assay (conversion of L-[3H]arginine to L-[3H]citrulline) in sinusoidal endothelial cell lysates
Format: cell-based
Experimental: Cell isolation and culture. Sinusoidal endothelial cells were isolated from male Sprague-Dawley rats (450-500 g) (Harlan, Indianapolis, Ind.). In brief, after in situ perfusion of the liver with 20 mg/100 mg pronase (Roche Molecular Biochemicals, Indianapolis, Ind.), followed by collagenase (Worthington Biochemical, Lakewood, N.J.), dispersed cell suspensions were removed from a layered discontinuous density gradient of 8.2 and 15.6% Accudenz (Accurate Chemical and Scientific, Westbury, N.Y.), further purified by centrifugal elutriation (18 ml/min flow), and were grown in medium containing 20% serum (10% horse/calf). The purity of endothelial cells was documented by their uptake of fluorescently labeled di-l-acetoacetylated low-density lipoprotein as described (21). Only primary sinusoidal endothelial isolates of >95% purity were used for study. Experiments were performed with cells frorrr a minimum three different isolations (for all experiments).
Animal model of liver injury and portal hypedension. Liver injury and portal hypertension were induced by performing bile duct ligation in 450- to 500-gram male retired breeder Sprague-Dawley rats as described in Liu and 20- to 25-gram male BALB/c mice. Briefly, bile duct ligation was performed by surgical isolation and ligation of the common bile duct. This model creates a portal-based fibrogenic response and portal hypertension 10-14 days after surgery (Liu). For study of injured sinusoidal endothelial cells, we used the rat model of bile duct ligation (10-14 days postsurgery); for in vivo study (primarily to conserve the use of active compound), we used the mouse model of bile duct ligation (examining portal pressure 4 wk postsurgery). In sham-operated rats or mice, laparotomy without isolation and section of the bile duct was performed. Studies were approved by the local Institutional Animal Care and Use Committees. Portal pressure measurement. Portal hypertension was induced in male BALB/c mice by bile duct ligation as above. Cicletanine (5 mg·kg^−1·day^−1) or vehicle was given by gavage as a single daily dose for 10 days before portal pressure measurement as described in Liue. In brief, mice were anesthetized, and an intravenous catheter (Becton Dickinson Vascular Access, Sandy, Utah) was introduced in the portal vein and secured with a silk tie. A calibrated low-pressure transducer (Digi-Med, Louisville, Ky.) was connected to the portal vein catheter, and portal pressure was recorded continuously using the Digi-Med Integrator 200 System (Digi-bled).
NOS activity assay. NOS activity from sinusoidal endothelial cell lysates was assessed by measuring the conversion of L-[3H]arginine to L-[3H]citrulline as described (6) per the manufacturer's instructions (Cayman Chemical). In brief, triplicate samples of cell lysates were incubated with a reaction buffer containing 3 pmol of L-[3H]arginine (45 Ci/mmol), 0-50 μM arginine, 1 mM NADPH, 100 nM calmodulin (CaM), 2 mM CaCl2, and 30 μM BH4 in a volume of 50-100 μl at room temperature for 30 min and at 37° C. for an additional 30 min in the presence and absence of 1 mM NG-nitro-L-arginine methyl ester (L-NAME). […] Radiolabeled counts per minute of generated L-citrulline were measured and used to determine L-NAME-inhibitable NOS activity (thus, each experiment included total counts and background counts). […] The reductase activities of sinusoidal endothelial cells with or without cicletanine exposure were determined using the NADPH-dependent cytochrome c assay. […]

Structure (SMILES): Cc1ncc2c(c1O)COC2c1ccc(Cl)cc1 (stereo not shown) [cicletanine, 3-(4-chlorophenyl)-1,3-dihydro-7-hydroxy-6-methylfuro-(3,4-c) pyridine]
- increase in eNOS activity, 6 h compared with 2 h (cicletanine 100 nM): greater at 6 h
- eNOS activity above basal level at 2 and 6 h after exposure (cicletanine 100 nM, cell lysates at 2 and 6 h): consistent increases
- eNOS activity (conversion of arginine to citrulline) (cicletanine 100 nM, normal sinusoidal endothelial cells): robust eNOS activity
- eNOS activity (sinusoidal endothelial cells injured by bile duct ligation, 2 h): increase
